From patent US6869589B1, “Cryptate compounds and methods for diagnosis and therapy” (Australian Nuclear Science & Technology Organization, priority 1999, dated 2005)

Assay: Biodistribution of ^64Cu complexes in balb/c mice
Protocol: The biodistribution of the ^64Cu complexes of compounds (1), (3) and (4) (0.10 ml intravenous injection) were evaluated in balb/c mice (5 animals per time point) at 3, 5, 10, 15, 20 and 30 minute time intervals. Biodistribution studies were performed in duplicate.

## NC12CNCCNCC(N)(CNCCNC1)CNCCNC2.[64Cu+2] [^64Cu-labelled compound (1)]
BLADDER, 3 MIN
  % injected dose per gram: 24.36 % INJECTED DOSE PER GRAM
BLADDER, 5 MIN
  % injected dose per gram: 31.12 % INJECTED DOSE PER GRAM
BLADDER, 10 MIN
  % injected dose per gram: 27.75 % INJECTED DOSE PER GRAM
BLADDER, 15 MIN
  % injected dose per gram: 15.17 % INJECTED DOSE PER GRAM
BLADDER, 20 MIN
  % injected dose per gram: 23.29 % INJECTED DOSE PER GRAM
BLADDER, 30 MIN
  % injected dose per gram: 122.93 % INJECTED DOSE PER GRAM
BLOOD, 3 MIN
  % injected dose per gram: 8.68 % INJECTED DOSE PER GRAM
BLOOD, 5 MIN
  % injected dose per gram: 6.32 % INJECTED DOSE PER GRAM
BLOOD, 10 MIN
  % injected dose per gram: 5.45 % INJECTED DOSE PER GRAM
BLOOD, 15 MIN
  % injected dose per gram: 2.48 % INJECTED DOSE PER GRAM
BLOOD, 20 MIN
  % injected dose per gram: 2.63 % INJECTED DOSE PER GRAM
BLOOD, 30 MIN
  % injected dose per gram: 1.14 % INJECTED DOSE PER GRAM
BONE, 3 MIN
  % injected dose per gram: 2.25 % INJECTED DOSE PER GRAM
BONE, 5 MIN
  % injected dose per gram: 1.87 % INJECTED DOSE PER GRAM
BONE, 10 MIN
  % injected dose per gram: 1.79 % INJECTED DOSE PER GRAM
BONE, 15 MIN
  % injected dose per gram: 1.23 % INJECTED DOSE PER GRAM
BONE, 20 MIN
  % injected dose per gram: 1.25 % INJECTED DOSE PER GRAM
BONE, 30 MIN
  % injected dose per gram: 0.78 % INJECTED DOSE PER GRAM
GIT, 3 MIN
  % injected dose per gram: 2.75 % INJECTED DOSE PER GRAM
GIT, 5 MIN
  % injected dose per gram: 2.21 % INJECTED DOSE PER GRAM
GIT, 10 MIN
  % injected dose per gram: 1.85 % INJECTED DOSE PER GRAM
GIT, 15 MIN
  % injected dose per gram: 1.11 % INJECTED DOSE PER GRAM
GIT, 20 MIN
  % injected dose per gram: 1.05 % INJECTED DOSE PER GRAM
GIT, 30 MIN
  % injected dose per gram: 1.16 % INJECTED DOSE PER GRAM
HEART, 3 MIN
  % injected dose per gram: 3.11 % INJECTED DOSE PER GRAM
HEART, 5 MIN
  % injected dose per gram: 2.25 % INJECTED DOSE PER GRAM
HEART, 10 MIN
  % injected dose per gram: 2.27 % INJECTED DOSE PER GRAM
HEART, 15 MIN
  % injected dose per gram: 0.89 % INJECTED DOSE PER GRAM
HEART, 20 MIN
  % injected dose per gram: 1.23 % INJECTED DOSE PER GRAM
HEART, 30 MIN
  % injected dose per gram: 0.40 % INJECTED DOSE PER GRAM
KIDNEY, 3 MIN
  % injected dose per gram: 23.18 % INJECTED DOSE PER GRAM
KIDNEY, 5 MIN
  % injected dose per gram: 11.50 % INJECTED DOSE PER GRAM
KIDNEY, 10 MIN
  % injected dose per gram: 12.80 % INJECTED DOSE PER GRAM
KIDNEY, 15 MIN
  % injected dose per gram: 6.77 % INJECTED DOSE PER GRAM
KIDNEY, 20 MIN
  % injected dose per gram: 7.77 % INJECTED DOSE PER GRAM
KIDNEY, 30 MIN
  % injected dose per gram: 4.95 % INJECTED DOSE PER GRAM
LIVER, 3 MIN
  % injected dose per gram: 2.29 % INJECTED DOSE PER GRAM
LIVER, 5 MIN
  % injected dose per gram: 1.50 % INJECTED DOSE PER GRAM
LIVER, 10 MIN
  % injected dose per gram: 1.42 % INJECTED DOSE PER GRAM
LIVER, 15 MIN
  % injected dose per gram: 0.82 % INJECTED DOSE PER GRAM
LIVER, 20 MIN
  % injected dose per gram: 0.69 % INJECTED DOSE PER GRAM
LIVER, 30 MIN
  % injected dose per gram: 0.50 % INJECTED DOSE PER GRAM
LUNGS, 3 MIN
  % injected dose per gram: 6.51 % INJECTED DOSE PER GRAM
LUNGS, 5 MIN
  % injected dose per gram: 4.45 % INJECTED DOSE PER GRAM
LUNGS, 10 MIN
  % injected dose per gram: 3.91 % INJECTED DOSE PER GRAM
LUNGS, 15 MIN
  % injected dose per gram: 2.06 % INJECTED DOSE PER GRAM
LUNGS, 20 MIN
  % injected dose per gram: 2.73 % INJECTED DOSE PER GRAM
LUNGS, 30 MIN
  % injected dose per gram: 0.85 % INJECTED DOSE PER GRAM
MUSCLE, 3 MIN
  % injected dose per gram: 1.81 % INJECTED DOSE PER GRAM
MUSCLE, 5 MIN
  % injected dose per gram: 1.81 % INJECTED DOSE PER GRAM
MUSCLE, 10 MIN
  % injected dose per gram: 2.39 % INJECTED DOSE PER GRAM
MUSCLE, 15 MIN
  % injected dose per gram: 2.28 % INJECTED DOSE PER GRAM
MUSCLE, 20 MIN
  % injected dose per gram: 1.17 % INJECTED DOSE PER GRAM
MUSCLE, 30 MIN
  % injected dose per gram: 1.33 % INJECTED DOSE PER GRAM
SKIN, 3 MIN
  % injected dose per gram: 5.82 % INJECTED DOSE PER GRAM
SKIN, 5 MIN
  % injected dose per gram: 5.59 % INJECTED DOSE PER GRAM
SKIN, 10 MIN
  % injected dose per gram: 5.48 % INJECTED DOSE PER GRAM
SKIN, 15 MIN
  % injected dose per gram: 2.61 % INJECTED DOSE PER GRAM
SKIN, 20 MIN
  % injected dose per gram: 2.96 % INJECTED DOSE PER GRAM
SKIN, 30 MIN
  % injected dose per gram: 1.63 % INJECTED DOSE PER GRAM
SPLEEN, 3 MIN
  % injected dose per gram: 2.09 % INJECTED DOSE PER GRAM
SPLEEN, 5 MIN
  % injected dose per gram: 1.48 % INJECTED DOSE PER GRAM
SPLEEN, 10 MIN
  % injected dose per gram: 1.54 % INJECTED DOSE PER GRAM
SPLEEN, 15 MIN
  % injected dose per gram: 1.44 % INJECTED DOSE PER GRAM
SPLEEN, 20 MIN
  % injected dose per gram: 0.69 % INJECTED DOSE PER GRAM
SPLEEN, 30 MIN
  % injected dose per gram: 0.52 % INJECTED DOSE PER GRAM
STOMACH, 3 MIN
  % injected dose per gram: 3.50 % INJECTED DOSE PER GRAM
STOMACH, 5 MIN
  % injected dose per gram: 2.73 % INJECTED DOSE PER GRAM
STOMACH, 10 MIN
  % injected dose per gram: 2.08 % INJECTED DOSE PER GRAM
STOMACH, 15 MIN
  % injected dose per gram: 1.50 % INJECTED DOSE PER GRAM
STOMACH, 20 MIN
  % injected dose per gram: 1.16 % INJECTED DOSE PER GRAM
STOMACH, 30 MIN
  % injected dose per gram: 0.74 % INJECTED DOSE PER GRAM
